Results from paper PMC11191095, “QSAR Reveals Decreased Lipophilicity of Polar Residues Determines the Selectivity of Antimicrobial Peptide Activity” (ACS Omega, 2024).
Where a SMILES comes first, the peptide text is derived from it.

What was measured:
Assay in all cases: microbe, parasite or virus in culture
[1] = test system: E. coli LEC001; format: cell-based, Escherichia coli; settings: E. coli LEC001 (R)
Summary of the method: (§1)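 Peptides 128→2 μg/mL, 2-fold series; inoculum ~5 × 10^5 CFU/mL from overnight culture (OD600 0.01, mixed 1:1). MHB non-cation-adjusted for bacteria, RPMI 1640 + 2% glucose for fungi. 37 °C, 20 h, OD600. MIC50/MIC90 at 50%/90% inhibition; n ≥ 3.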

[2] = test system: E. coli NCTC 12923; format: cell-based, Escherichia coli; settings: E. coli NCTC 12923 (S)
Summary of the method: as §1

[3] = test system: P. aeruginosa NCTC 13437; format: cell-based, Pseudomonas aeruginosa; settings: P. aeruginosa NCTC 13437 (R)
Summary of the method: as §1

[4] = test system: A. baumannii ATCC 17978; format: cell-based, Acinetobacter baumannii; settings: A. baumannii ATCC 17978 (S)
Summary of the method: as §1

[5] = test system: A. baumannii AYE; format: cell-based, Acinetobacter baumannii; settings: A. baumannii AYE (R)
Summary of the method: as §1

[6] = test system: K. pneumoniae M6; format: cell-based, Klebsiella pneumoniae; settings: K. pneumoniae M6 (S)
Summary of the method: as §1

[7] = test system: K. pneumoniae NCTC 13368; format: cell-based, Klebsiella pneumoniae; settings: K. pneumoniae NCTC 13368 (R)
Summary of the method: as §1

[8] = test system: S. aureus (MRSA) NCTC 13616; format: cell-based, Staphylococcus aureus; settings: S. aureus (MRSA) NCTC 13616 (R)
Summary of the method: as §1

[9] = test system: S. aureus (MRSA) USA300; format: cell-based, Staphylococcus aureus; settings: S. aureus (MRSA) USA300 (R)
Summary of the method: as §1

[10] = test system: S. aureus (MSSA) ATCC 9144; format: cell-based, Staphylococcus aureus; settings: S. aureus (MSSA) ATCC 9144 (S)
Summary of the method: as §1

[11] = test system: C. auris TDG 1912; format: cell-based, Candida auris; settings: C. auris TDG 1912
Summary of the method: as §1

[12] = test system: C. albicans NCPF 3281; format: cell-based; settings: C. albicans NCPF 3281
Summary of the method: as §1

[13] = test system: C. glabrata NCPF 8018; format: cell-based; settings: C. glabrata NCPF 8018
Summary of the method: as §1

[14] = test system: C. krusei NCPF 3876; format: cell-based; settings: C. krusei NCPF 3876
Summary of the method: as §1

[15] = test system: C. parapsilosis NCPF 3209; format: cell-based; settings: C. parapsilosis NCPF 3209
Summary of the method: as §1

[16] = test system: C. tropicalis NCPF 8760; format: cell-based; settings: C. tropicalis NCPF 8760
Summary of the method: as §1

[17] = MHB, 37 °C, 20 h, OD600, min. three biological repeats
[18] = MHB, ~5×10^5 CFU/mL, 37 °C, 20 h, OD600, min. three biological repeats
[19] = 50% growth inhibition, RPMI 1640 + 2% glucose, 37 °C, 20 h, OD600
[20] = 90% growth inhibition, RPMI 1640 + 2% glucose, 37 °C, 20 h, OD600
[21] = 50% growth inhibition, RPMI 1640 + 2% glucose, 37 °C, 20 h
[22] = 90% growth inhibition, RPMI 1640 + 2% glucose, 37 °C, 20 h

CC[C@H](C)[C@H](NC(=O)CNC(=O)[C@@H](N)CCCCN)C(=O)N[C@@H](CCCNC(=N)N)C(=O)NCC(=O)N[C@@H](Cc1ccc(O)cc1)C(=O)N[C@@H](CCCCN)C(=O)NCC(=O)NCC(=O)N[C@@H](Cc1ccc(O)cc1)C(=O)N[C@@H](CS)C(=O)N[C@@H](CCCCN)C(=O)NCC(=O)N[C@@H](C)C(=O)N[C@@H](Cc1ccccc1)C(=O)N[C@@H](CCCCN)C(=O)N[C@@H](CCC(N)=O)C(=O)N[C@H](C(=O)N[C@@H](CS)C(=O)N[C@@H](CCCCN)C(=O)N[C@@H](CS)C(=O)N[C@@H](Cc1ccc(O)cc1)C(=O)O)[C@@H](C)O [Os] (H-KGIRGYKGGYCKGAFKQTCKCY-OH; N-terminus and C-terminus assumed)
Modal MIC [1, 17]: > 128 µg/mL | Modal MIC ([1]; shown in µM): > 51.7 µM | Modal MIC [2, 18]: > 128 µg/mL | Modal MIC ([2]; shown in µM): > 51.7 µM | Modal MIC [3, 17]: > 128 µg/mL | Modal MIC ([3]; shown in µM): > 51.7 µM | Modal MIC [4, 17]: > 128 µg/mL | Modal MIC ([4]; shown in µM): > 51.7 µM | Modal MIC [5, 17]: > 128 µg/mL | Modal MIC ([5]; shown in µM): > 51.7 µM | Modal MIC [6, 17]: > 128 µg/mL | Modal MIC ([6]; shown in µM): > 51.7 µM | Modal MIC [7, 17]: > 128 µg/mL | Modal MIC ([7]; shown in µM): > 51.7 µM | Modal MIC [8, 17]: > 128 µg/mL | Modal MIC ([8]; shown in µM): > 51.7 µM | Modal MIC [9, 17]: > 128 µg/mL | Modal MIC ([9]; shown in µM): > 51.7 µM | Modal MIC [10, 17]: > 128 µg/mL | Modal MIC ([10]; shown in µM): > 51.7 µM | Modal MIC50 [11, 19]: > 128 µg/mL | Modal MIC90 [11, 20]: > 128 µg/mL | Modal MIC50 ([11]; shown in µM): > 51.7 µM | Modal MIC90 ([11]; shown in µM): > 51.7 µM | Modal MIC50 [12, 21]: > 128 µg/mL | Modal MIC90 [12, 22]: > 128 µg/mL | Modal MIC50 ([12]; shown in µM): > 51.7 µM | Modal MIC90 ([12]; shown in µM): > 51.7 µM | Modal MIC50 [13, 21]: > 128 µg/mL | Modal MIC90 [13, 22]: > 128 µg/mL | Modal MIC50 ([13]; shown in µM): > 51.7 µM | Modal MIC90 ([13]; shown in µM): > 51.7 µM | Modal MIC50 [14, 21]: > 128 µg/mL | Modal MIC90 [14, 22]: > 128 µg/mL | Modal MIC50 ([14]; shown in µM): > 51.7 µM | Modal MIC90 ([14]; shown in µM): > 51.7 µM | Modal MIC50 [15, 21]: > 128 µg/mL | Modal MIC90 [15, 22]: > 128 µg/mL | Modal MIC50 ([15]; shown in µM): > 51.7 µM | Modal MIC90 ([15]; shown in µM): > 51.7 µM | Modal MIC50 [16, 21]: > 128 µg/mL | Modal MIC90 [16, 22]: > 128 µg/mL | Modal MIC50 ([16]; shown in µM): > 51.7 µM | Modal MIC90 ([16]; shown in µM): > 51.7 µM

CC[C@H](C)[C@H](NC(=O)CNC(=O)[C@@H](N)CCCCN)C(=O)N[C@@H](CCCNC(=N)N)C(=O)NCC(=O)N[C@@H](Cc1ccc(O)cc1)C(=O)N[C@@H](CCCCN)C(=O)NCC(=O)NCC(=O)N[C@@H](Cc1ccc(O)cc1)C(=O)N[C@@H](CS)C(=O)N[C@@H](CCCCN)C(=O)NCC(=O)N[C@@H](C)C(=O)N[C@@H](Cc1ccccc1)C(=O)N[C@@H](CCCCN)C(=O)N[C@@H](CCC(N)=O)C(=O)N[C@H](C(=O)N[C@@H](CS)C(=O)N[C@@H](CCCCN)C(=O)N[C@@H](CS)C(=O)N[C@@H](Cc1ccc(O)cc1)C(N)=O)[C@@H](C)O [Osa] (H-KGIRGYKGGYCKGAFKQTCKCY-NH2; N-terminus assumed)
Modal MIC [1, 17]: > 128 µg/mL | Modal MIC ([1]; shown in µM): > 51.7 µM | Modal MIC [2, 18]: > 128 µg/mL | Modal MIC ([2]; shown in µM): > 51.7 µM | Modal MIC [3, 17]: > 128 µg/mL | Modal MIC ([3]; shown in µM): > 51.7 µM | Modal MIC [4, 17]: > 128 µg/mL | Modal MIC ([4]; shown in µM): > 51.7 µM | Modal MIC [5, 17]: > 128 µg/mL | Modal MIC ([5]; shown in µM): > 51.7 µM | Modal MIC [6, 17]: > 128 µg/mL | Modal MIC ([6]; shown in µM): > 51.7 µM | Modal MIC [7, 17]: > 128 µg/mL | Modal MIC ([7]; shown in µM): > 51.7 µM | Modal MIC [8, 17]: > 128 µg/mL | Modal MIC ([8]; shown in µM): > 51.7 µM | Modal MIC [9, 17]: > 128 µg/mL | Modal MIC ([9]; shown in µM): > 51.7 µM | Modal MIC [10, 17]: > 128 µg/mL | Modal MIC ([10]; shown in µM): > 51.7 µM | Modal MIC50 [11, 19]: > 128 µg/mL | Modal MIC90 [11, 20]: > 128 µg/mL | Modal MIC50 ([11]; shown in µM): > 51.7 µM | Modal MIC90 ([11]; shown in µM): > 51.7 µM | Modal MIC50 [12, 21]: > 128 µg/mL | Modal MIC90 [12, 22]: > 128 µg/mL | Modal MIC50 ([12]; shown in µM): > 51.7 µM | Modal MIC90 ([12]; shown in µM): > 51.7 µM | Modal MIC50 [13, 21]: > 128 µg/mL | Modal MIC90 [13, 22]: > 128 µg/mL | Modal MIC50 ([13]; shown in µM): > 51.7 µM | Modal MIC90 ([13]; shown in µM): > 51.7 µM | Modal MIC50 [14, 21]: > 128 µg/mL | Modal MIC90 [14, 22]: > 128 µg/mL | Modal MIC50 ([14]; shown in µM): > 51.7 µM | Modal MIC90 ([14]; shown in µM): > 51.7 µM | Modal MIC50 [15, 21]: > 128 µg/mL | Modal MIC90 [15, 22]: > 128 µg/mL | Modal MIC50 ([15]; shown in µM): > 51.7 µM | Modal MIC90 ([15]; shown in µM): > 51.7 µM | Modal MIC50 [16, 21]: > 128 µg/mL | Modal MIC90 [16, 22]: > 128 µg/mL | Modal MIC50 ([16]; shown in µM): > 51.7 µM | Modal MIC90 ([16]; shown in µM): > 51.7 µM

CC(C)C[C@H](NC(=O)[C@H](CCCCN)NC(=O)[C@H](CO)NC(=O)[C@H](CCCCN)NC(=O)[C@@H](N)Cc1c[nH]c2ccccc12)C(=O)N[C@@H](C)C(=O)N[C@@H](CCCCN)C(=O)N[C@@H](CCCCN)C(N)=O [PS-PB-8a] (H-WKSKLAKK-NH2)
Modal MIC [1, 17]: > 128 µg/mL | Modal MIC ([1]; shown in µM): > 127.2 µM | Modal MIC [2, 18]: > 128 µg/mL | Modal MIC ([2]; shown in µM): > 127.2 µM | Modal MIC [3, 17]: > 128 µg/mL | Modal MIC ([3]; shown in µM): > 127.2 µM | Modal MIC [4, 17]: > 128 µg/mL | Modal MIC ([4]; shown in µM): > 127.2 µM | Modal MIC [5, 17]: > 128 µg/mL | Modal MIC ([5]; shown in µM): > 127.2 µM | Modal MIC [6, 17]: > 128 µg/mL | Modal MIC ([6]; shown in µM): > 127.2 µM | Modal MIC [7, 17]: > 128 µg/mL | Modal MIC ([7]; shown in µM): > 127.2 µM | Modal MIC [8, 17]: > 128 µg/mL | Modal MIC ([8]; shown in µM): > 127.2 µM | Modal MIC [9, 17]: > 128 µg/mL | Modal MIC ([9]; shown in µM): > 127.2 µM | Modal MIC [10, 17]: > 128 µg/mL | Modal MIC ([10]; shown in µM): > 127.2 µM | Modal MIC50 [11, 19]: > 128 µg/mL | Modal MIC90 [11, 20]: > 128 µg/mL | Modal MIC50 ([11]; shown in µM): > 127.2 µM | Modal MIC90 ([11]; shown in µM): > 127.2 µM | Modal MIC50 [12, 21]: > 128 µg/mL | Modal MIC90 [12, 22]: > 128 µg/mL | Modal MIC50 ([12]; shown in µM): > 127.2 µM | Modal MIC90 ([12]; shown in µM): > 127.2 µM | Modal MIC50 [13, 21]: > 128 µg/mL | Modal MIC90 [13, 22]: > 128 µg/mL | Modal MIC50 ([13]; shown in µM): > 127.2 µM | Modal MIC90 ([13]; shown in µM): > 127.2 µM | Modal MIC50 [14, 21]: > 128 µg/mL | Modal MIC90 [14, 22]: > 128 µg/mL | Modal MIC50 ([14]; shown in µM): > 127.2 µM | Modal MIC90 ([14]; shown in µM): > 127.2 µM | Modal MIC50 [15, 21]: > 128 µg/mL | Modal MIC90 [15, 22]: > 128 µg/mL | Modal MIC50 ([15]; shown in µM): > 127.2 µM | Modal MIC90 ([15]; shown in µM): > 127.2 µM | Modal MIC50 [16, 21]: > 128 µg/mL | Modal MIC90 [16, 22]: > 128 µg/mL | Modal MIC50 ([16]; shown in µM): > 127.2 µM | Modal MIC90 ([16]; shown in µM): > 127.2 µM
